This is an account of results in article PMC12884772, “Macrophagic Sclerostin Loop2‐ApoER2 Interaction Required by Sclerostin for Cardiovascular Protective Action” (Advanced Science, 2025).

The target in assay [1] is T1, ApoER2 (Mus musculus, UniProt Q924X6).
T1 construct: FLAG; expressed in transfected cells; host or cells: RAW264.7
T1 sequence (Q924X6 29-996): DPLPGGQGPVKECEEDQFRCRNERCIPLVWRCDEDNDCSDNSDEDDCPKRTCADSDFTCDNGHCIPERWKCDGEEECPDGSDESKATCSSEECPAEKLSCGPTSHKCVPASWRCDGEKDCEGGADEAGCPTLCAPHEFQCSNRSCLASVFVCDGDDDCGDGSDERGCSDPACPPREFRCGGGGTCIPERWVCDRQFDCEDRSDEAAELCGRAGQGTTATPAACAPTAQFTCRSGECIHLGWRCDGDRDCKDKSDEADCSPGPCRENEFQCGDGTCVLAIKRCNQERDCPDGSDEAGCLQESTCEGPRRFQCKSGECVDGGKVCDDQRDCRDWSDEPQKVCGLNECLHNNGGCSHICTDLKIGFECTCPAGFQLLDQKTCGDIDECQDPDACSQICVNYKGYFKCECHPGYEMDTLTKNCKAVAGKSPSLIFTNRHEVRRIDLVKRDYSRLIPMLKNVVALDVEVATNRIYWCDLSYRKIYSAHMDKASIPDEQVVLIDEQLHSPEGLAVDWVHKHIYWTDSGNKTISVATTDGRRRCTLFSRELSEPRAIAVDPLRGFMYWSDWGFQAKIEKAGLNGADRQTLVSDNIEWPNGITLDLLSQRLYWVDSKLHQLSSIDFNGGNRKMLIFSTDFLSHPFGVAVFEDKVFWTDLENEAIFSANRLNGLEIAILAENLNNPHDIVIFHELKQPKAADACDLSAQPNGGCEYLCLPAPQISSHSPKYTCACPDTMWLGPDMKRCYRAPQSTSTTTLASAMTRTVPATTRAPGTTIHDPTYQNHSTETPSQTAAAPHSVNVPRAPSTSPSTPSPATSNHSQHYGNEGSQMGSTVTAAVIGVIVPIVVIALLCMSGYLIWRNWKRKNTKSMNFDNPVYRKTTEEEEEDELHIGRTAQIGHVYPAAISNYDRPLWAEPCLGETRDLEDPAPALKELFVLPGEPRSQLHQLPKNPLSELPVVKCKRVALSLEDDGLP
Put plainly: Confocal microscopy of cell surface binding of sclerostin to ApoER2. It counts as cell-based. To be noted: GFP‐ApoER2 overexpressed RAW 264.7, sclerostin 1 µM for 12 h; Figure 6C. On the procedure:
The interaction of full‐length (FL)/truncated ApoER2 with full‐length (FL) /truncated sclerostin in macrophages (RAW264.7) were determined by pull‐down assay and Co‐IP assay. The binding affinity of ApoER2 to FL sclerostin and sclerostin loop2 were determined by biolayer interferometry (BLI) analysis. Moreover, the binding of sclerostin to ApoER2 on macrophages (RAW264.7) was examined by confocal microscopy.
GFP‐ApoER2 overexpressed RAW 264.7 cells and GFP‐vector overexpressed RAW 264.7 cells were plated in laser confocal dishes (80 000 cells per well) 12 h before the experiment. The recombinant sclerostin was added to make its final concentration 1 µM for 12 h. Cells were washed three times with PBS and then fixed with 4% paraformaldehyde (PFA) in PBS for 15 min, washed three times, blocked in 10% goat serum for 1 h at room temperature and incubated with anti‐sclerostin primary antibody (Thermo, PA5‐113315, 1:100) overnight at 4 °C. Thereafter, cells were washed with PBS three times, then incubated with goat anti‐rabbit IgG H&L (Alexa Fluor 594, 1:200) for 2 h at 37 °C. Hoechst was used to stain the cell nuclei. The fluorescent images were obtained by a confocal microscope (Leica, STELLARIS STED) equipped with a 405 nm laser, a 488 nm laser, and a 594 nm laser.^[ [67] ^]

The test system of assay [2] is mouse macrophages (RAW 264.7). Description: LPS‐induced inflammatory responses in mouse macrophages (RAW 264.7), siNC or siLrp8. Type of assay: cell-based. On the procedure:
To determine whether the suppressive effects of sclerostin on inflammatory responses in macrophages were dependent on ApoER2 in vitro, PMA (100 ng/mL, 48 h)‐induced human differentiated macrophages (THP‐1 cells, Procell Life Science & Technology, CL‐0233) and mouse macrophages (RAW 264.7 cells, ATCC, TIB‐71) were utilized. Human differentiated macrophages or mouse macrophages were divided into 9 groups (n = 3 per group), respectively, including (1) siNC, (2) siNC + LPS, (3) siNC + LPS + SOST 500 nM or 250 nM, (4) siNC + LPS + SOST 1 µM or 500 nM, (5) siNC + LPS + SOST 2 µM or 1 µM, (6) siLrp8 + LPS + SOST 500 nM or 250 nM, (7) siLrp8 + LPS + SOST 1µM or 500 nM, (8) siLrp8 + LPS + SOST 2 µM or 1 µM, (9) siLrp8 + LPS. Cells in groups (6‐9) were transfected with siRNA targeting human/mouse Lrp8 (human siLrp8: Santa Cruz Biotechnology sc‐40097, mouse siLrp8: Santa Cruz Biotechnology sc‐40098), while cells in groups (1‐5) were transfected with empty vector as control (siNC). 24 h later, cells in group (3)/(6), (4)/(7), and (5)/(8) were treated with recombinant human or mouse sclerostin for 3 h at concentration of 500 nM or 250 nM, 1 µM or 500 nM, as well as 2 µM or 1 µM, respectively, while cells in groups (1), (2), and (9) were treated with vehicle. Then, cells in groups (2‐9) were treated with LPS (100 ng/mL or 1 µg/mL) for 18 h. All groups of cell lysates were collected for determining the mRNA expression levels of TNF‐α, MCP‐1, and IL‐10 (human or mouse, respectively) by RT‐PCR.^[ [34] ^] Cell mediums were collected for determining the protein expression/secretion levels of TNF‐α, MCP‐1, and IL‐10 (human or mouse, respectively) by ELISA.^[ [34] ^]
Total RNA was extracted from cells following the protocols of Trizol reagent (Invitrogen, 15 596 026). […] The relative gene expression levels were calculated using the 2^−ΔΔCt method with GAPDH as the reference gene.^[ [40] ^] […]

Setting [3] is: RAW 264.7, LPS 1 µg/mL 18 h, recombinant mouse sclerostin 250 nM-1 µM for 3 h, RT‐PCR and ELISA, n = 3.

For the substance “sclerostin: recombinant human/mouse full‐length sclerostin protein”, the “Cell surface binding of sclerostin to ApoER2” value in assay [1] was “observed”. Also, in assay [2] (setting [3]), the “mRNA expression and protein expression/secretion of IL‐10” value is on record as “promoted”; the “mRNA expression and protein expression/secretion of TNF‐α and MCP‐1” value is reported as “inhibited”. Moreover, the “Effects of sclerostin on cytokine/chemokine expression/secretion upon Lrp8 silencing” value in assay [2] (RAW 264.7 with siLrp8, LPS 1 µg/mL 18 h) is reported as “not detected”.
